In patent publication US4518789A, “Phenyl alpha-acyloxyacetamide derivatives and their therapeutic use” (priority 1983, dated 1985):

These compounds were tested on Eczemas, and Other Pruritic Disorders (assay: Topical anti-pruritic effect in patients with pruritic disorders). Conditions: 2 to 5%, after initial anti-pruritic effect.
Type: in vivo, human
Excerpt: Patients with various kinds of pruritic disorders participated in this study. The cases included atopic eczema, patchy eczema, chronic eczema of the hands, lichen simplex chronicus, contact allergic eczema, pruritus of the aged, pruritus of hepatic origin, pruritus ani, pruritus vulvae, scalp pruritus and pruritus of other disorders such as mycosis fungoides, psoriasis and pityriasis rubra pilaris.
Therapeutic compositions containing phenyl-alpha-acyloxyacetamides at 2 to 5% concentrations in cream, ointment, lotion or solution were prepared according to the Examples. The medicinal compositions were topically applied by the patient in an amount sufficient to cover the itching area of skin. Applications were made one to two times daily or as frequently as necessary and without occlusive dressings.
Two parameters have been used to compare degrees of anti-pruritic effect of phenyl-alpha-acyloxyacetamides. The first parameter is whether the relief of itching is complete (2+) or incomplete (1+). The second parameter is the number of hours the patient stays free of pruritus after the initial anti-pruritic effect. […] Therefore, the overall anti-pruritic effect of a compound may range from 2+ to 4+. […] 4+ for complete relief and lasting for more than 8 hours.
For `CCC(=O)OC(C(=O)NCCc1ccccc1)(c1ccccc1)c1ccccc1` [N-phenethyl diphenyl-alpha-propionyloxyacetamide], the “duration of anti-pruritic effect” value was “less than 8 hours”.

Same assay, conditions: all patients tested
For `CCC(=O)OC(C(=O)NCCc1ccccc1)(c1ccccc1)c1ccccc1` [N-phenethyl diphenyl-alpha-propionyloxyacetamide], the “relief of itching (in words)” value was “completely abolished itch sensations”.

Same assay, conditions: first category compounds, 2 to 5%
In the case of `CC(=O)OC(C(=O)NCc1ccc(Cl)cc1)c1ccccc1` (stereo not drawn) [N-p-chlorobenzyl phenyl-alpha-acetoxyacetamide], the “Anti-pruritic Effect” value is reported as 4+ (complete relief and lasting for more than 8 hours). With `CNC(=O)C(OC(C)=O)c1ccccc1` (stereo not drawn) [N-methyl phenyl alpha-acetoxyacetamide] the “Anti-pruritic Effect” value was 3+. `CC(=O)OC(C(=O)NCc1ccccc1)c1ccccc1` (stereo not drawn) [N-benzyl phenyl-alpha-acetoxyacetamide] was tested, and the “Anti-pruritic Effect” value was 4+ (complete relief and lasting for more than 8 hours). With `CC(=O)OC(C(=O)NC(C)(C)C)c1ccccc1` (stereo not drawn) [N-t-butyl phenyl-alpha-acetoxyacetamide] the “Anti-pruritic Effect” value was 4+ (complete relief and lasting for more than 8 hours). With `CCN(CC)C(=O)C(OC(C)=O)c1ccccc1` (stereo not drawn) [N,N-diethyl phenyl-alpha-acetoxyacetamide] the “Anti-pruritic Effect” value was 4+ (complete relief and lasting for more than 8 hours). In the case of `CCNC(=O)C(OC(=O)Cc1ccccc1)c1ccccc1` (stereo not drawn) [N-ethyl phenyl-alpha-phenylacetoxyacetamide], the “Anti-pruritic Effect” value is reported as 4+ (complete relief and lasting for more than 8 hours). With `COc1ccc(CCNC(=O)C(OC(C)=O)c2ccccc2)cc1OC` (stereo not drawn) [N-(3,4 -dimethoxyphenethyl)phenyl-alpha-acetoxyacetamide] the “Anti-pruritic Effect” value was 4+ (complete relief and lasting for more than 8 hours). With `COc1ccc(CCNC(=O)C(OC(C)=O)c2ccccc2)cc1` (stereo not drawn) [N-p-methoxyphenethyl phenyl-alpha-acetoxyacetamide] the “Anti-pruritic Effect” value was 4+ (complete relief and lasting for more than 8 hours). For `CCC(=O)OC(C(=O)NCCc1ccccc1)c1ccccc1` (stereo not drawn) [N-phenethyl phenyl-alpha-propionyloxyacetamide], the “Anti-pruritic Effect” value was 3+. With `CC(=O)OC(C(=O)N(Cc1ccccc1)Cc1ccccc1)c1ccccc1` (stereo not drawn) [N,N-dibenzyl phenyl-alpha-acetoxyacetamide] the “Anti-pruritic Effect” value was 3+. With `COc1ccc(CNC(=O)C(OC(C)=O)c2ccccc2)cc1` (stereo not drawn) [N-p-methoxybenzyl phenyl-alpha-acetoxyacetamide] the “Anti-pruritic Effect” value was 4+ (complete relief and lasting for more than 8 hours). In the case of `CC(=O)OC(C(=O)NC(C)C)c1ccccc1` (stereo not drawn) [N-isopropyl phenyl-alpha-acetoxyacetamide], the “Anti-pruritic Effect” value is reported as 3+. `CC(=O)OC(C(=O)NCCSCCO)c1ccccc1` (stereo not drawn) [N-hydroxyethylthioethylphenyl-alpha-acetoxyacetamide] was tested, and the “Anti-pruritic Effect” value was 3+.

Same assay, conditions: intermediate and related compounds
`CC(=O)OC(C(=O)OC(C(=O)NCCc1ccccc1)c1ccccc1)c1ccccc1` (stereo not drawn) [N-phenethyl phenyl-alpha-(o-acetylmandeloyloxy)acetamide] was tested, and the “Anti-pruritic Effect” value was 3+. In the case of `O=C(NCCc1ccccc1)C(O)c1ccccc1` (stereo not drawn) [N-phenethyl phenyl-alpha-hydroxyacetamide], the “Anti-pruritic Effect” value is reported as 3+. `CCN(CC)CCNC(=O)C(OC(C)=O)c1ccccc1` (stereo not drawn) [N-(N',N'-diethylaminoethyl)phenyl-alpha-acetoxyacetamide] was tested, and the “Anti-pruritic Effect” value was 3+. With `CC(=O)OC(C(=O)NCc1cccnc1)c1ccccc1` (stereo not drawn) [N-3'-picolyl phenyl-alpha-acetoxyacetamide] the “Anti-pruritic Effect” value was 3+.

These compounds were tested on itch provoked by papain or histamine dihydrochloride (assay: Anti-pruritic effect on normal human skin (papain or histamine induced itch)). Conditions: 2 to 5% topical, normal human adult volunteers.
Type: in vivo
Method: Itch provoking pruritic compositions were prepared as follows: papain 0.5% solution was prepared by dissolving papain 50 mg in 10 ml of saline, and histamine 0.2% solution was prepared by dissolving histamine dihydrochloride 20 mg in 10 ml of saline. Itching was provoked or induced as follows: a pruritic composition in a volume of 0.05 ml containing papain or histamine dihydrochloride as a pruritic agent was topically applied on the flexor forearm of normal human adult volunteers and the skin site was gently pricked rapidly through the solution with a 26-gauge needle to the level of the papillary dermis as described by Bernstein et al. (J. E. Bernstein, R. M. Swift, K. Soltani and A. L. Lorincz: Antipruritic Effect of an Opiate Antagonist, Naloxone Hydrochloride in Journal of Investigative Dermatology 78, 82-83, 1982). This technique provoked or induced itch sensation at the test skin site within a few minutes following the topical application of the pruritic composition. After itch sensation had been induced a composition containing 2 to 5% N-ethyl phenyl-alpha-acetoxyacetamide, N-phenethyl phenyl-alpha-acetoxyacetamide or other phenyl-alpha-acyloxyacetamide derivatives of the instant invention was topically applied on the pruritic skin site. The vehicle alone cream containing no active ingredient was used as a control.
With `CC(=O)OC(C(=O)NCCc1ccccc1)(c1ccccc1)c1ccccc1` [N-phenethyl diphenyl-alpha-acetoxyacetamide] the Anti-pruritic Effect was “substantial anti-pruritic effect”.

What follows are compounds tested on calming or sedative effects (assay: Tranquilizing effect, oral administration in dogs). Conditions: not given.
Type: in vivo
Method: Hairless mice, white hairy mice and dogs were used in these studies.
Three dogs weighing between 10 to 20 kg were given orally N-phenethyl phenyl-alpha-acetoxyacetamide or N-ethyl phenyl-alpha-acetoxyacetamide in gelating capsules at doses of 5 to 10 mg per kg.
`CN(C)CCOC(c1ccccc1)c1ccccc1` [Benadryl] was tested, and the “soporific or drowsy effects” value was “soporific and drowsy effects”. In the case of `CN1C(=O)CN=C(c2ccccc2)c2cc(Cl)ccc21` [Valium], the “soporific or drowsy effects” value is reported as “soporific and drowsy effects”.

Same assay, conditions: test compounds 5 to 10 mg per kg
For `CN(C)CCOC(c1ccccc1)c1ccccc1` [Benadryl], the “tranquilizing / sedative effect” value was “substantial sedative effects”. In the case of `CN1C(=O)CN=C(c2ccccc2)c2cc(Cl)ccc21` [Valium], the “tranquilizing / sedative effect” value is reported as “substantial sedative effects”.
